# Target: CIP2A(1-560) (Homo sapiens, UniProt Q8TCG1)
# Assay: microscale thermophoresis
# Assay type: binding
row,Kd,SMILES
1,8.4 µM,CC(C)=CCC[C@]1(C)C=Cc2c(O)c3c(c(CC=C(C)C)c2O1)O[C@]12C(=C[C@@H]4C[C@H]1C(C)(C)O[C@@]2(C/C=C(/C)C(=O)N1CCOCC1)C4=O)C3=O [DAP-19]
2,4.2 µM,"CC(C)=CCC/C(C)=C/Cc1c(O)c(CC=C(C)C)c2c(c1O)C(=O)C1=C[C@@H]3C[C@H]4C(C)(C)O[C@@](C/C=C(/C)C(=O)NCCCCCNC(=O)CCCC[C@@H]5SC[C@@H]6NC(=O)N[C@@H]65)(C3=O)[C@@]14O2 [bGNA, biotinylated gambogenic acid]"

row,SMILES,Kd
1,"CC(C)=CCC[C@]1(C)C=Cc2c(O)c3c(c(CC=C(C)C)c2O1)O[C@]12C(=C[C@@H]4C[C@H]1C(C)(C)O[C@@]2(C/C=C(/C)C(=O)O)C4=O)C3=O [GIA, Gambogic acid]",4.6 µM
